Earlier results, collected in patent US20230045688A1 (priority 2020, published 2023).

System: SARS-CoV
Conditions: disruption of oligosaccharide formation; Vincent et al. 2005; Savarino et al. 2006

In the case of CCN(CC)CCCC(C)Nc1ccnc2cc(Cl)ccc12 (stereo not shown) [chloroquine], the SARS-CoV infectivity is listed as “significantly decreases SARS-CoV infectivity”.
